Patent US9839638B2, “Compositions and methods for protecting cells during cancer chemotherapy and radiotherapy” (Wisconsin Alumni Research Foundation, priority 2000, dated 2017)

How the values were obtained:
[1] = tested on: CTX induced alopecia in 7 day old rat pups; experiment: Prevention of cytoxan (CTX)-induced alopecia by topical chemoprotective inducers in rat pups; format: in vivo, Sprague Dawley rats; details: for protective effect against CTX-induced hair loss (hair density): topical in nonionic liposomes day -2 to day 6, CTX i.p. day 0, scored day 7, 100% = untreated control pups; for alopecia when delivered in minoxidil vehicle (propylene glycol:ethanol:water): minoxidil carrier, compared with CTX-treated pups without inducer
[2] = tested on: chemoprotective/stress-related genes (GST-PI, GST-Mu2, GST-Ya, GST) in rat pup skin; experiment: Rat stress gene cDNA expression array on skin samples of treated rat pups; format: in vivo; details: topical 15 mM for 5 days; compared to rat pups treated with cytoxan
Method: In brief, rat pups were treated with either CTX or B-NF and at different time intervals skin samples were collected and total RNA was extracted from them. The RNA was reverse transcribed to form the respective cDNAs in the presence of ^32P dATP using primers specific for stress-related genes. The radiolabeled cDNA synthesized was used to probe a rat stress gene cDNA expression array consisting of 207 stress-related genes (Clontech) according to the manufacturer's protocol. The hybridized membrane was exposed to a phosphorimager screen and the image obtained was aligned with an orientation grid to identify the genes that are expressed. Images from control, CTX, treated and B-NF-treated animals were compared to determine the changes, if any, in the expression pattern of chemoprotective genes under these experimental conditions.

[3] = tested on: 7 day old rat pups (hair loss); details: 40 μg/gm CTX i.p., 7 day old pups, examined seven days after
Method: Lactating Sprague Dawley rats with 12 pups per mother were purchased from Harlan Sprague Dawley. To produce CTX induced alopecia, several concentrations (35, 40 45 μg/gm body weight) of CTX in water were injected i.p. in to 7 day old pups. Seven days after CTX treatment the pups were examined to determine the degree of hair loss. The pups were gently brushed on the back to remove the loose hair sticking onto the skin and photographed. The density of hair on the pups was then determined.

Row | Structure (SMILES) | protective effect against CTX-induced hair loss (hair density) [1] [%] | other results
1 | Cc1c(-c2cnccn2)ssc1=S [Oltipraz] | 50 | –
2 | C[S+]([O-])CCCCN=C=S (stereo not shown) [sulphoraphane] | 5 | –
3 | COc1ccc(O)c(C(C)(C)C)c1 [BHA] | 60 | –
4 | O=c1cc(-c2ccccc2)oc2ccc3ccccc3c12 [B-NF, β-naphthoflavone] | 80 | expression level of GST-PI, GST-Mu2, GST-Ya and GST (rat homolog of human) in skin [2]: significant increase; protective effect when applied only on the day before cytoxan ([1]; applied only on the day before cytoxan): substantial protective effect; alopecia when delivered in minoxidil vehicle (propylene glycol:ethanol:water) [1]: as severe as the untreated CTX-treated rat pups; alopecia when delivered in minoxidil vehicle (propylene glycol:ethanol:water) ([1]; listed as BNF): hair loss equivalent to that observed in cytoxan-treated animals not pre-treated
5 | CC(C)(C)c1cc(O)ccc1O [tBHQ, tert-butylhydroquinone] | 10 | –
6 | O=P1(N(CCCl)CCCl)NCCCO1 (stereo not shown) [CTX] | – | hair loss induced [3]: 100%
